Experimental data as given in US20040044037A1, “Amidino-urea serotonin receptor ligands and compositions, their pharmaceutical uses, and methods for their snythesis” (priority 2003, published 2004).
Like-named read-outs stand apart in the source and are kept apart here.

Experiments:
human 5-HT1a receptors = biological target: T1, human 5-HT1a receptors (Homo sapiens, UniProt P08908); experiment: Competition radioligand binding, h5-HT1a
T1 construct: expressed in transfected cells; host or cells: CHO K1 cells
T1 sequence (P08908 1-422): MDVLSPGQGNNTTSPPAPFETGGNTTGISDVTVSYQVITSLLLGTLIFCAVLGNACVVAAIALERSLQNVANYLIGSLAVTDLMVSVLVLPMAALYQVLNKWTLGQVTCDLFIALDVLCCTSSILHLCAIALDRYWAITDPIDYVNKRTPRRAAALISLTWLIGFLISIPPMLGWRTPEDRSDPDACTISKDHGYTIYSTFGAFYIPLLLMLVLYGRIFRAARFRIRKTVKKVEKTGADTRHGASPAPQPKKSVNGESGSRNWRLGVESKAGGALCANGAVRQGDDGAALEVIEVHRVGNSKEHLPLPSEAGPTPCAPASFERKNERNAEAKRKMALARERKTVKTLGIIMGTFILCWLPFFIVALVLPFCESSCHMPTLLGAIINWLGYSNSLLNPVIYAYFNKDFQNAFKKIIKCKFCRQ
Method in brief: (§1)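 Human 5-HT1a and 5-HT2a receptors were expressed in CHO K1 cell membranes. Competition binding was stopped by filtration onto PEI-soaked GF/C filters and counted by liquid scintillation. IC50 values and Hill slopes came from nonlinear regression, and Ki was calculated by Cheng–Prusoff.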

human 5HT2a receptors = biological target: T2, human 5HT2a receptors (Homo sapiens, UniProt P28223); experiment: Competition radioligand binding, 5-HT2A
T2 construct: expressed in transfected cells; host or cells: CHO K1 cells
Method in brief: as §1

[1] = biological target: T3, human 5-HT6 (h5-HT6) receptors (Homo sapiens, UniProt P50406); experiment: Competition radioligand binding, h5-HT6
T3 construct: purchased Receptor Biology, Inc. (Beltsville, Md.); host or cells: HEK-293 cells

[2] = biological target: T4, human 5-HT7B (h5-HT7b) receptors (Homo sapiens, UniProt P34969); experiment: Competition radioligand binding, h5-HT7b
T4 construct: expressed in transfected cells
Method in brief: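 Membranes from HEK 293 cells stably expressing human 5-HT7b incubated with ~0.2 nM [3H]5-CT and varying compound 2 h at 37 °C in HEPES buffer pH 7.4 with pargyline. Nonspecific binding with 1 μM 5-HT; filtration, scintillation counting; IC50 by nonlinear regression converted to Ki via Cheng–Prusoff.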

[3] = biological target: T5, human D2S dopamine (hD2S-DA) receptors (Homo sapiens, UniProt P14416); experiment: Competition radioligand binding, hD2S dopamine
T5 construct: purchased Receptor Biology, Inc. (Beltsville, Md.); host or cells: A9 L cells

[4] = [3H]5-CT, membranes of CHO K1 cells, read-out: Ki 5-HT1A
[5] = [3H]Ketanserin, membranes of CHO K1 cells, read-out: Ki 5-HT2A
[6] = [3H]LSD, membranes of HEK-293 cells, read-out: Ki 5-HT6
[7] = [3H]5-CT, membranes of HEK 293 cells, read-out: Ki 5-HT7
[8] = [3H]Spiperone, membranes of A9 L cells, read-out: Ki D2

T3 sequence (P50406 whole entry): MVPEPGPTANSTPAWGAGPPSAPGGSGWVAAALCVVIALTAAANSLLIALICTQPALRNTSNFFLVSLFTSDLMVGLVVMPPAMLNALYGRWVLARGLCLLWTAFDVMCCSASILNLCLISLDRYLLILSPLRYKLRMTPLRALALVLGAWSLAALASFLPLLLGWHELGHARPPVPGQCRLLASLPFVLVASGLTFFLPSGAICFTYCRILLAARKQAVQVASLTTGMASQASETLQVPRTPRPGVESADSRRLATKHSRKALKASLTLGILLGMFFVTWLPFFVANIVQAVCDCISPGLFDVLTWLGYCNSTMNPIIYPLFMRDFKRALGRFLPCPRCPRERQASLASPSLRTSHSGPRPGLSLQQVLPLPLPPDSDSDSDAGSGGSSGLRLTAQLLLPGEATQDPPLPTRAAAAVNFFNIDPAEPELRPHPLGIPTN
T5 sequence (P14416 1-414 isoform P14416-2): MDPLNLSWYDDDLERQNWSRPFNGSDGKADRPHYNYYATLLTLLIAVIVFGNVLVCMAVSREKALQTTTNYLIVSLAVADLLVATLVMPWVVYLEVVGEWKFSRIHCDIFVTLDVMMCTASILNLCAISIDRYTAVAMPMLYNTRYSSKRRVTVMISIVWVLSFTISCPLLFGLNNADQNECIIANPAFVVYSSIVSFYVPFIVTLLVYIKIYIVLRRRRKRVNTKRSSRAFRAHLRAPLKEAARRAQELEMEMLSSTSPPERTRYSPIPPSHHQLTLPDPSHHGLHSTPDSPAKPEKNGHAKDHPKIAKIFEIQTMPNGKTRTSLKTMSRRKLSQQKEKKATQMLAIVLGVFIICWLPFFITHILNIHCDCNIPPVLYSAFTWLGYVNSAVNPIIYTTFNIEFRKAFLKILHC
T4 sequence (P34969 1-432 limits assumed): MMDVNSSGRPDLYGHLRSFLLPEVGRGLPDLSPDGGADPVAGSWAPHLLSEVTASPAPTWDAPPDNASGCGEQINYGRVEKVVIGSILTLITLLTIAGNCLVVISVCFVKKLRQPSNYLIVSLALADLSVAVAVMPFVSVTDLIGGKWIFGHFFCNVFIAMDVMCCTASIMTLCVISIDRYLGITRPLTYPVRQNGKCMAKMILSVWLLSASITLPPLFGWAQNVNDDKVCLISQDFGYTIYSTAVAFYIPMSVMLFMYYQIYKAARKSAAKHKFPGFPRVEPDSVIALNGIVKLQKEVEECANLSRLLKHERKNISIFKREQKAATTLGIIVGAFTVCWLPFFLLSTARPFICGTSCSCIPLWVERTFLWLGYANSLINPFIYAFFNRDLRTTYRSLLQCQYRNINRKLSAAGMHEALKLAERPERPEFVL
T2 sequence (P28223 whole entry): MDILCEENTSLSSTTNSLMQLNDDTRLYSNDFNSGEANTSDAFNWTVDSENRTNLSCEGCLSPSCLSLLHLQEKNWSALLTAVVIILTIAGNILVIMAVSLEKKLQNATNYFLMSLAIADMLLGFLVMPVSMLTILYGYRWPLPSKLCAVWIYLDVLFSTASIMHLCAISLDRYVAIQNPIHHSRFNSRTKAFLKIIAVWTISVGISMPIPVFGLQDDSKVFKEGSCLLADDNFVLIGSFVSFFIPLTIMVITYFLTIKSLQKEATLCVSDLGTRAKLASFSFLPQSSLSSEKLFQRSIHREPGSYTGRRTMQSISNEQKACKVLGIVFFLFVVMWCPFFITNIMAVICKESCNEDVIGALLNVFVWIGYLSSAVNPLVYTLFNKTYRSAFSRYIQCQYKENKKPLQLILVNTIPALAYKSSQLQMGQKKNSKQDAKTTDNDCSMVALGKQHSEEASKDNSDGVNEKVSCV

N=C(NCc1cccc2ccccc12)NC(=O)NCC1CCN(Cc2cccc(Cl)c2)CC1 [Example 73, 1-(3-Chlorobenzyl)-4-({[({imino[(1-naphthylmethyl)amino]methyl}amino)carbonyl]amino}methyl)piperidine]
Ki (human 5-HT1a receptors; [4]): 390 nM
Ki (human 5HT2a receptors; [5]): 8.7 nM
Ki [1, 6]: 750 nM
Ki [2, 7]: 21 nM
Ki [3, 8]: 830 nM

N=C(NCc1cccc2ccccc12)NC(=O)NCC1CCN(Cc2cc(F)cc(F)c2)CC1 [Example 74, 1-(3,5-Difluorobenzyl)-4-({[({imino[(1-naphthylmethyl)amino]methyl}amino)carbonyl]amino}methyl)piperidine]
Ki (human 5-HT1a receptors; [4]): 300 nM
Ki (human 5HT2a receptors; [5]): 4.1 nM
Ki [1, 6]: 1910 nM
Ki [2, 7]: 28 nM
Ki [3, 8]: 1340 nM

N=C(NCc1cccc2ccccc12)NC(=O)NCC1CCN(Cc2ccccc2)CC1 [Example 75, 1-Benzyl-4-({[({imino[(1-naphthylmethyl)amino]methyl}amino)carbonyl]amino}methyl)piperidine]
Ki (human 5-HT1a receptors; [4]): 340 nM
Ki (human 5HT2a receptors; [5]): 4.9 nM
Ki [1, 6]: 4010 nM
Ki [2, 7]: 29 nM
Ki [3, 8]: 2300 nM

Cc1ccc(CN2CCC(CNC(=O)NC(=N)NCc3cccc4ccccc34)CC2)cc1 [Example 76, 4-({[({Imino[(1-naphthylmethyl)amino]methyl}amino)carbonyl]amino}methyl)-1-(4-methylbenzyl)piperidine]
Ki (human 5-HT1a receptors; [4]): 550 nM
Ki (human 5HT2a receptors; [5]): 6.8 nM
Ki [1, 6]: 3380 nM
Ki [2, 7]: 46 nM
Ki [3, 8]: 1900 nM

N=C(NCc1cccc2ccccc12)NC(=O)NCC1CCN(Cc2ccc(F)cc2)CC1 [Example 77, 1-(4-Fluorobenzyl)-4-({[({imino[(1-naphthylmethyl)amino]methyl}amino)carbonyl]amino}methyl)piperidine]
Ki (human 5-HT1a receptors; [4]): 1090 nM
Ki (human 5HT2a receptors; [5]): 9.5 nM
Ki [1, 6]: 3350 nM
Ki [2, 7]: 19 nM
Ki [3, 8]: 1270 nM

CCOc1ccccc1CNC(=N)NC(=O)N1CCC(Nc2ccccc2)CC1 [Example 78, N-[(4-Anilino-1-piperidinyl)carbonyl]-N′-(2-ethoxybenzyl)guanidine]
Ki (human 5-HT1a receptors): > 4000 nM
Ki (human 5HT2a receptors): 170 nM
Ki [1]: 6870 nM
Ki [2]: 34 nM
Ki [3]: > 2500 nM

N=C(NCc1ccccc1-c1ccccc1)NC(=O)N1CCC(Nc2ccccc2)CC1 [Example 79, N-[(4-Anilino-1-piperidinyl)carbonyl]-N′-([1,1′-biphenyl]-2-ylmethyl)guanidine]
Ki (human 5-HT1a receptors): > 4000 nM
Ki (human 5HT2a receptors): 910 nM
Ki [1]: 2400 nM
Ki [2]: 99 nM
Ki [3]: > 2500 nM

N=C(NCc1c(Cl)cccc1Oc1ccccc1)NC(=O)N1CCC(Nc2ccccc2)CC1 [Example 80, N-[(4-Anilino-1-piperidinyl)carbonyl]-N′-(2-chloro-6-phenoxybenzyl)guanidine]
Ki (human 5-HT1a receptors): 3650 nM
Ki (human 5HT2a receptors): 930 nM
Ki [1]: 2300 nM
Ki [2]: 41 nM
Ki [3]: > 2500 nM

COc1cccc(OC)c1CNC(=N)NC(=O)N1CCC(Nc2ccccc2)CC1 [Example 81, N-[(4-Anilino-1-piperidinyl)carbonyl]-N′-(2,6-dimethoxybenzyl)guanidine]
Ki (human 5-HT1a receptors): 2940 nM
Ki (human 5HT2a receptors): 180 nM
Ki [1]: 4700 nM
Ki [2]: 66 nM
Ki [3]: 1920 nM

CNC(=O)NC(=N)NCc1c(OC)cccc1OC [Example 85, 2-{[(Imino{[(methylamino)carbonyl]amino}methyl)amino]methyl}-1,3-dimethoxybenzene]
Ki (human 5-HT1a receptors; [4]): 310 nM
Ki (human 5HT2a receptors; [5]): 280 nM
Ki [1, 6]: 6340 nM
Ki [2, 7]: 12 nM
Ki [3, 8]: > 2500 nM

CNC(=O)NC(=N)NCc1ccccc1Oc1ccccc1Cl [Example 86, 1-(2-Chlorophenoxy)-2-{[(imino{[(methylamino)carbonyl]amino}methyl)amino]methyl}benzene]
Ki (human 5-HT1a receptors; [4]): 920 nM
Ki (human 5HT2a receptors; [5]): 290 nM
Ki [1, 6]: 580 nM
Ki [2, 7]: 6.3 nM
Ki [3, 8]: > 2500 nM

CNC(=O)NC(=N)NCc1cccc(-c2ccccc2)c1 [Example 87, 3-{[(Imino{[(methylamino)carbonyl]amino}methyl)amino]methyl}-1,1′-biphenyl]
Ki (human 5-HT1a receptors; [4]): > 400 nM
Ki (human 5HT2a receptors; [5]): 1020 nM
Ki [1, 6]: 3360 nM
Ki [2, 7]: 80 nM
Ki [3, 8]: > 2500 nM
